Measurements from the Biogen ADME set (Fang et al. 2023).
≈ marks a conversion by molar mass, not a printed value.

Details: for aqueous solubility: pH 6.8

CCCCNC(=O)c1ccc2c(c1)nnn2C
intrinsic clearance, human liver microsomes: ≤ 4.74 mL/min/kg
intrinsic clearance, rat liver microsomes: ≤ 10.7 mL/min/kg
aqueous solubility: 26 µg/mL (≈ 112 µM)

Fc1c(CN2CCC(c3nnc4ccccn34)CC2)cccc1OC1CC1
MDR1-MDCK efflux ratio: 4.29
intrinsic clearance, human liver microsomes: 15 mL/min/kg
intrinsic clearance, rat liver microsomes: 120 mL/min/kg

Cc1noc(C)c1CSC(=N)N1CCOCC1
MDR1-MDCK efflux ratio: 1.21
intrinsic clearance, human liver microsomes: ≤ 4.74 mL/min/kg
intrinsic clearance, rat liver microsomes: ≤ 10.7 mL/min/kg

COc1ncc(C(=O)NCc2cnn3cccnc23)cn1
MDR1-MDCK efflux ratio: 2.54
intrinsic clearance, human liver microsomes: ≤ 4.74 mL/min/kg
intrinsic clearance, rat liver microsomes: ≤ 10.7 mL/min/kg

CCC(=O)NCc1ccnc(N(C)C)c1
MDR1-MDCK efflux ratio: 0.879
intrinsic clearance, human liver microsomes: ≤ 4.74 mL/min/kg
intrinsic clearance, rat liver microsomes: ≤ 10.7 mL/min/kg
aqueous solubility: 30.6 µg/mL (≈ 147 µM)

CCC(=O)N(C)c1ccccc1C(=O)O
MDR1-MDCK efflux ratio: 1.28
intrinsic clearance, human liver microsomes: 23.7 mL/min/kg
intrinsic clearance, rat liver microsomes: 1130 mL/min/kg
aqueous solubility: 36.4 µg/mL (≈ 176 µM)

COc1ccc(CNCc2cccc3ccccc23)cc1
MDR1-MDCK efflux ratio: 0.45
intrinsic clearance, human liver microsomes: 194 mL/min/kg
intrinsic clearance, rat liver microsomes: 620 mL/min/kg
aqueous solubility: 47.2 µg/mL (≈ 170 µM)

COc1cccc(Oc2ccc(NC(=O)CN3CCCCC3=O)cn2)c1
MDR1-MDCK efflux ratio: 13.6
intrinsic clearance, human liver microsomes: ≤ 4.74 mL/min/kg
intrinsic clearance, rat liver microsomes: 76.8 mL/min/kg

Cc1cc(-c2cccc3ccnn23)nc(N2CCCC2)n1
intrinsic clearance, human liver microsomes: 122 mL/min/kg
intrinsic clearance, rat liver microsomes: 1600 mL/min/kg

Cc1ccc(S(=O)(=O)N2CCC[C@H](C(=O)NC3CCOCC3)C2)cc1
MDR1-MDCK efflux ratio: 20.9
intrinsic clearance, human liver microsomes: ≤ 4.74 mL/min/kg
intrinsic clearance, rat liver microsomes: 581 mL/min/kg
aqueous solubility: 54.1 µg/mL (≈ 148 µM)

Cn1nccc1C(=O)C1CCN(C(=O)c2cccs2)CC1
intrinsic clearance, human liver microsomes: 12.2 mL/min/kg
intrinsic clearance, rat liver microsomes: 97.5 mL/min/kg

CC(C)Oc1ccc(C(=O)Nc2cccc(-c3nc4cnccc4o3)c2)cc1
aqueous solubility: 0.54 µg/mL (≈ 1.45 µM)

Clc1ccc(COc2cccc(N3CCNCC3)c2)cc1
intrinsic clearance, human liver microsomes: 5.23 mL/min/kg
intrinsic clearance, rat liver microsomes: 320 mL/min/kg
aqueous solubility: 23.2 µg/mL (≈ 76.6 µM)

O=C(Nc1nc2cc(C(F)(F)F)cc(NC3CC3)n2n1)c1cccnc1
MDR1-MDCK efflux ratio: 2.35
intrinsic clearance, human liver microsomes: ≤ 4.74 mL/min/kg
intrinsic clearance, rat liver microsomes: 39.6 mL/min/kg
aqueous solubility: 1.1 µg/mL (≈ 3.04 µM)

O=C(O)c1c(O)c(Cc2ccc(Cl)cc2)nc2c3c(ccc12)CCCC3
aqueous solubility: 0.79 µg/mL (≈ 2.15 µM)

CCc1cnc(CNC(=O)N2CCC(n3cncn3)CC2)s1
MDR1-MDCK efflux ratio: 24.7
intrinsic clearance, human liver microsomes: ≤ 4.74 mL/min/kg
intrinsic clearance, rat liver microsomes: ≤ 10.7 mL/min/kg
aqueous solubility: 49.4 µg/mL (≈ 154 µM)

Cc1ccc(-c2noc3nc(C)cc(C(=O)O)c23)cc1
MDR1-MDCK efflux ratio: 2.93
intrinsic clearance, human liver microsomes: ≤ 4.74 mL/min/kg
intrinsic clearance, rat liver microsomes: ≤ 10.7 mL/min/kg
aqueous solubility: 74.3 µg/mL (≈ 277 µM)

c1ccc(-c2nn3c(-c4ccco4)nnc3c3ccccc23)cc1
aqueous solubility: 0.17 µg/mL (≈ 0.544 µM)

CON(C)C(=O)c1cc2ccc(C(C)(C)C)cc2[nH]1
MDR1-MDCK efflux ratio: 0.438
intrinsic clearance, human liver microsomes: 55 mL/min/kg
intrinsic clearance, rat liver microsomes: 344 mL/min/kg
aqueous solubility: 1.02 µg/mL (≈ 3.92 µM)

Cc1ccc(NC(=O)[C@H]2COc3ccccc3O2)nc1
intrinsic clearance, human liver microsomes: 187 mL/min/kg
intrinsic clearance, rat liver microsomes: 1320 mL/min/kg
aqueous solubility: 31.4 µg/mL (≈ 116 µM)

COc1ccc(Nc2nc3ccccc3c3nncn23)cc1
aqueous solubility: 0.14 µg/mL (≈ 0.481 µM)

N#CC1(NC(=O)CN2CCOCC2)CCCCCC1
MDR1-MDCK efflux ratio: 2.14
intrinsic clearance, human liver microsomes: ≤ 4.74 mL/min/kg
intrinsic clearance, rat liver microsomes: 65.6 mL/min/kg
aqueous solubility: 45.1 µg/mL (≈ 170 µM)

N#Cc1cnn(-c2nc(-c3ccc(Br)s3)cs2)c1N
aqueous solubility: 1.9 µg/mL (≈ 5.39 µM)

COc1ccccc1CNc1n[nH]c2nc([C@H]3CCCN(CC(=O)N4CCCC4)C3)ccc12
MDR1-MDCK efflux ratio: 43.9
intrinsic clearance, human liver microsomes: 22.9 mL/min/kg
intrinsic clearance, rat liver microsomes: 422 mL/min/kg
aqueous solubility: 54.9 µg/mL (≈ 122 µM)
